In patent US20120100130A1, “Novel Receptor Hetero-Dimers/-Oligomers” (DIMERIX BIOSCIENCE PTY LTD., priority 2009, published 2012):

What was measured:
AT1R [1] = target: T1, AT1R (Homo sapiens, UniProt P30556); assay: eBRET control, cells expressing AT1R/Rluc8 and barr2/Venus with pcDNA3; assay type: cell-based; details: 10^−7M MCP1; HEK293FT cells expressing AT1R/Rluc8 and barr2/Venus with pcDNA3
T1 construct: expressed in transfected cells; host or cells: HEK293FT
T1 sequence (P30556 1-359): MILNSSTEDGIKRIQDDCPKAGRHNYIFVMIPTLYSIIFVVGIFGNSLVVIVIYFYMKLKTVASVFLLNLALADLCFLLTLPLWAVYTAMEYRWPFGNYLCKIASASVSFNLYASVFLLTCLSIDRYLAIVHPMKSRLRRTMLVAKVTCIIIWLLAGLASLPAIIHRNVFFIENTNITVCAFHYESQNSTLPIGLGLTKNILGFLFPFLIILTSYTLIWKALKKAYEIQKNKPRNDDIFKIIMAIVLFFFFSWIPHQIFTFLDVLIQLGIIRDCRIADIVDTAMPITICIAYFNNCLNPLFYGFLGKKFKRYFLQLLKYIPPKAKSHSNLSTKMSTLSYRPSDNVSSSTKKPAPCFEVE
Description: (§1) HEK293FT cells were seeded in 6-well plates at a density of approximately 630,000 cells/well and maintained at 37° C., 5% CO2 in Complete Media (DMEM containing 0.3 mg/ml glutamine, 100 IU/ml penicillin and 100 μg/ml streptomycin (Gibco)) supplemented with 10% fetal calf serum (FCS; Gibco). Transient transfections were carried out 24 h after seeding using GeneJuice (Novagen) according to manufacturer instructions. 24 h post-transfection, cells were washed with PBS, detached using 0.05% trypsin/0.53 mM EDTA, resuspended in HEPES-buffered phenol red free Complete Media containing 5% FCS and added to a poly-L-lysine-coated white 96-well microplate (Nunc). 48 h post-transfection, eBRET assays were carried out following pre-incubation of cells with EnduRen™ (Promega) at a final concentration of 30 μM, at 37° C., 5% CO2 for 2 h. BRET measurements were taken at 37° C. using the Victor Light plate reader with Wallac 1420 software (Perkin-Elmer). Filtered light emissions were sequentially measured for 2 s in each of the ‘donor wavelength window’ (400-475 nm) and ‘acceptor wavelength window’ (520-540 nm).
The BRET signal observed between interacting proteins is normalized by subtracting the background BRET ratio. […]
In parallel, eBRET signals were measured from cells transiently expressing AT1R/Rluc8 and barr2/Venus with pcDNA3 following treatment with 10^−7M monocyte chemotactic protein-1 (MCP1).

AT2R = target: T2, AT2R (Homo sapiens, UniProt P50052); assay: eBRET control, cells expressing AT2R/Rluc8 and barr2/Venus with pcDNA3; assay type: cell-based; details: 10^−7M MCP1; HEK293FT cells expressing AT2R/Rluc8 and barr2/Venus with pcDNA3
T2 construct: expressed in transfected cells; host or cells: HEK293FT
T2 sequence (P50052 1-363): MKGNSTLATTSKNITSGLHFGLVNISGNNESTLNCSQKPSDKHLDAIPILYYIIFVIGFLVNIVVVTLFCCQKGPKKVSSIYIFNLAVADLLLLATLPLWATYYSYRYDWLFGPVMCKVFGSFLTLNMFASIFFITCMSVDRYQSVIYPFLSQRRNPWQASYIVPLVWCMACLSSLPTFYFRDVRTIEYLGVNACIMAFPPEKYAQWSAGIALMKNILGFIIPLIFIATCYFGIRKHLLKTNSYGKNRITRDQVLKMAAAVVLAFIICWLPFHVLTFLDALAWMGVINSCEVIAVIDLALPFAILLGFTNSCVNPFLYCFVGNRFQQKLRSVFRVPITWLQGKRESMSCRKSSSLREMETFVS
Description: as §1
The BRET signal observed between interacting proteins is normalized by subtracting the background BRET ratio. […] In the following examples, the second calculation will be used and the signal is described as the ‘ligand-induced BRET ratio’.

AngII treated monocytes = details: cited from earlier work
[2] = system: glomerular endothelial cells; details: AngII treatment, rat glomerular endothelial cells; cited from earlier work
renal tissue = details: rats, 3 days of AngII treatment; cited from earlier work
leukocyte infiltration = details: intraperitoneal AngII administration; cited from earlier work
CCR2b = target: T3, CCR2b (Rattus norvegicus, UniProt O55193); details: AngII and high salt diet, cited from earlier work
T3 construct: host or cells: whole animals (in vivo)
T3 sequence (O55193 1-373): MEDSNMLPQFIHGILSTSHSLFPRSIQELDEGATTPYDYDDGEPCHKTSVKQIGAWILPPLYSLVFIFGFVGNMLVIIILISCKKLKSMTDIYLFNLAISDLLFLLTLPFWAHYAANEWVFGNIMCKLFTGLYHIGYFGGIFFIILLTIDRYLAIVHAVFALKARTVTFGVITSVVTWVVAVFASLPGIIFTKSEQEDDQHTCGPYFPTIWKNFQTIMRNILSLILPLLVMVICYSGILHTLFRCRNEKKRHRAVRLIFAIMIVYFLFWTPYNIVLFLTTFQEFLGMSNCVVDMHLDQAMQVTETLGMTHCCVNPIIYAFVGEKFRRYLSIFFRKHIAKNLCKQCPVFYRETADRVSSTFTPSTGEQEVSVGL

AT1R [3] = details: apolipoprotein E-deficient mice, cited from earlier work
[4] = system: renal cells and monocytes; details: cited from earlier work

For monocyte chemotactic protein-1 [MCP1], the “ligand-induced BRET ratio” value (AT1R [1]) was “did not result in an increase in ligand-induced BRET ratio” and the “ligand-induced BRET ratio” value (AT2R) was “did not result in an increase in ligand-induced BRET ratio”.
In the case of `C[C@H](N[C@@H](CCc1ccccc1)C(=O)O)C(=O)N1[C@H](C(=O)O)C[C@@H]2CCC[C@@H]21` [Ramiprilat], the “AngII-induced upregulation of MIP-1” value (AngII treated monocytes) is listed as “suppressed”.
For “angiotensin II (DRVYIHPF; Angiotensin-2; UniProt P01019 25-32, looked up) [AngII]”, the “mRNA and protein expression of the chemokine RANTES” value [2] is listed as “increase”, the “renal expression of TNFα and MCP-1” value (renal tissue) is listed as “increased” and the “CC and CXC chemokine levels” value (leukocyte infiltration) is listed as “increase”.
For `O=C1Nc2ccccc2C2(CCN(CCc3ccc(C(F)(F)F)cc3)CC2)O1` [RS102895], the BP (CCR2b; with versus without CCR2b antagonist) is given as “comparable” and the “renal protection in hypertension” value (CCR2b) is given as “protects the kidney in hypertension by reducing the inflammatory response”.
In the case of `CCCCc1nc(Cl)c(CO)n1Cc1ccc(-c2ccccc2-c2nn[nH]n2)cc1` [Losartan], the “AngII-mediated upregulation of MIP-1 and interleukin-8 chemokines” value (AngII treated monocytes) is given as “inhibited” and the Leukocyte infiltration (leukocyte infiltration) is given as “inhibited”.
In the case of `CCCCC1=NC2(CCCC2)C(=O)N1Cc1ccc(-c2ccccc2-c2nnn[nH]2)cc1` [irbesartan], the lesion size (AT1R [3]; after 12 weeks) is listed as “reduced” and the “levels of MCP-1 and MIP-1α mRNA expression” value (AT1R [3]) is listed as “significantly lower”.
For “angiotensin III (RVYIHPF; Angiotensin-3; UniProt P01019 26-32, looked up) [AngIII]”, the “MCP-1 mRNA and protein expression” value ([4]; AngIII treatment of renal cells and monocytes) is listed as “increase” and the “transcription factor NF-κB” value ([4]; AngIII treatment) is listed as “activated”.
